Measured values from patent US6710049B2, “Azole compounds as anti-fungal agents” (Ranbaxy Laboratories Limited, priority 2000, dated 2004).

Experiments:
Rhizopus (Ceylon) [1] = assay: MIC determination (NCCLS broth method); assay type: cell-based
Description: (§1) The in-vitro evaluation of the antifungal activity of the compounds can be performed by determining the minimum inhibitory concentration (MIC) as shown in Table 1 which is the concentration of the test compound in Rosewell Park Memorial Institute (RPMI) 1640 liquid medium buffered with 3-(Morpholino)propanesulphonic acid (MOPS) to pH 7, at which there is significant inhibition of the particular fungi. In practice the National Committee for Clinical Laboratory Standard (NCCLS) M27A document for Candida and Cryptococcus and M38P for Aspergillus was used to determine the MIC against yeast and filamentous fungi with suitable modifications for dermatophytes to other filamentous fungi. Three quality control strains were included each time the MIC were determined and readings recorded only when the Quality Control results fell into the acceptable range. After MIC results had been recorded, 100 μl from each of the well showing no growth was spread over Sabouraud Dextrose Agar (SDA) to determine the minimum fungicidal concentration (MFC) as shown in Table 2.

C krusei 766.1 = assay: MIC determination (NCCLS broth method); assay type: cell-based
Description: as §1

Fusarium 2960C = assay: MIC determination (NCCLS broth method); assay type: cell-based
Description: as §1

Penicillium H - 1048 [2] = assay: MIC determination (NCCLS broth method); assay type: cell-based
Description: as §1

A flavus P3 - 1041 [3] = assay: MIC determination (NCCLS broth method); assay type: cell-based
Description: as §1

C tropicalis 750 = assay: MIC determination (NCCLS broth method); assay type: cell-based
Description: as §1

Penicillium 1641 [4] = assay: MIC determination (NCCLS broth method); assay type: cell-based
Description: as §1

Penicillium 191 = assay: MFC determination (subculture on Sabouraud Dextrose Agar); assay type: cell-based
Description: as §1

Fusarium 29600 = assay: as above; assay type: cell-based; conditions: Fusarium 29600
Description: as §1

A niger P1 - 1046 = assay: as above; assay type: cell-based
Description: as §1

A flavus E4 - 1042 = assay: as above; assay type: cell-based
Description: as §1

C krusei 6258 = assay: as above; assay type: cell-based
Description: as §1

Mucor (Ceylon) = assay: as above; assay type: cell-based
Description: as §1

Rhizopus (Ceylon) [5] = assay: as above; assay type: cell-based
Description: as §1

Penicillium 2306 = assay: as above; assay type: cell-based
Description: as §1

C parapsilosis 22019 = assay: as above; assay type: cell-based
Description: as §1

A niger E5 - 1047 = assay: as above; assay type: cell-based
Description: as §1

Fusarium (Ceylon) = assay: as above; assay type: cell-based
Description: as §1

A flavus E3 - 1044 = assay: as above; assay type: cell-based
Description: as §1

Alternaria 1051 = assay: as above; assay type: cell-based
Description: as §1

Penicillium I - 1049 = assay: as above; assay type: cell-based
Description: as §1

Rhizopus 1052 = assay: as above; assay type: cell-based
Description: as §1

Fusarium 18270 = assay: as above; assay type: cell-based; conditions: Fusarium 18270
Description: as §1

Penicillium 2548 = assay: as above; assay type: cell-based
Description: as §1

Penicillium 31620 = assay: as above; assay type: cell-based
Description: as §1

A flavus P2 - 1045 = assay: as above; assay type: cell-based
Description: as §1

Penicillium H - 1048 [6] = assay: as above; assay type: cell-based
Description: as §1

A flavus P3 - 1041 [7] = assay: as above; assay type: cell-based
Description: as §1

Penicillium 1641 [8] = assay: as above; assay type: cell-based
Description: as §1

C albicans Y01.19 = assay: MIC determination (NCCLS broth method); assay type: cell-based, Candida albicans
Description: as §1

C albicans A-26 = assay: MIC determination (NCCLS broth method); assay type: cell-based, Candida albicans
Description: as §1

A fumigatus K - 1033 = assay: MIC determination (NCCLS broth method); assay type: cell-based, Aspergillus fumigatus
Description: as §1

A fumigatus PGI - 1023 = assay: MIC determination (NCCLS broth method); assay type: cell-based, Aspergillus fumigatus
Description: as §1

A fumigatus L - 1034 = assay: MIC determination (NCCLS broth method); assay type: cell-based, Aspergillus fumigatus
Description: as §1

A fumigatus SI-1 - 1019 [9] = assay: MIC determination (NCCLS broth method); assay type: cell-based, Aspergillus fumigatus
Description: as §1

A fumigatus J - 1032 = assay: MIC determination (NCCLS broth method); assay type: cell-based, Aspergillus fumigatus
Description: as §1

A fumigatus II - 1012 = assay: MIC determination (NCCLS broth method); assay type: cell-based, Aspergillus fumigatus
Description: as §1

A fumigatus I - 1011 = assay: MIC determination (NCCLS broth method); assay type: cell-based, Aspergillus fumigatus
Description: as §1

A fumigatus 1008 [10] = assay: MIC determination (NCCLS broth method); assay type: cell-based, Aspergillus fumigatus
Description: as §1

Penicilliuim 2306 = assay: MIC determination (NCCLS broth method); assay type: cell-based, Penicillium
Description: as §1

P variotii 22319 = assay: MIC determination (NCCLS broth method); assay type: cell-based, Paecillomyces variotii
Description: as §1

C neoformans I = assay: MIC determination (NCCLS broth method); assay type: cell-based, Cryptococcus neoformans
Description: as §1

C neoformans M-106 = assay: MIC determination (NCCLS broth method); assay type: cell-based, Cryptococcus neoformans
Description: as §1

A fumigatus SI-1 - 1019 [11] = assay: MFC determination (subculture on Sabouraud Dextrose Agar); assay type: cell-based, Aspergillus fumigatus
Description: as §1

A fumigatus 1008 [12] = assay: as above; assay type: cell-based, Aspergillus fumigatus
Description: as §1

## C[C@@H](n1ncn(-c2ccc(N3CCN(c4ccc(Cl)cc4)CC3)cc2)c1=S)[C@](O)(Cn1cncn1)c1ccc(F)cc1F [Compound No. 1, 2-{[1R,2R]-2-(2,4-Difluorophenyl)-2-hydroxy-1-methyl-3-(1H-1,2,4-triazole-1-yl)propyl}-4-{4-[4-(4-chlorophenyl)-1-piperizinyl]phenyl}-3-(2H,4H)-1,2,4-thiotriazolone]
Rhizopus (Ceylon) [1]
  Minimum Inhibitory Concentration (MIC): 0.125 µg/mL
C krusei 766.1
  Minimum Inhibitory Concentration (MIC): 0.125 µg/mL
Fusarium 2960C
  Minimum Inhibitory Concentration (MIC): 2 µg/mL
Penicillium H - 1048 [2]
  Minimum Inhibitory Concentration (MIC): 0.03 µg/mL
A flavus P3 - 1041 [3]
  Minimum Inhibitory Concentration (MIC): 0.008 µg/mL
C tropicalis 750
  Minimum Inhibitory Concentration (MIC): 0.008 µg/mL
Penicillium 1641 [4]
  Minimum Inhibitory Concentration (MIC): 0.25 µg/mL
Penicillium 191
  Minimum Fungicidal Concentration (MFC): 0.125 µg/mL
Fusarium 29600
  Minimum Fungicidal Concentration (MFC): >128 µg/mL
A niger P1 - 1046
  Minimum Fungicidal Concentration (MFC): 0.06 µg/mL
A flavus E4 - 1042
  Minimum Fungicidal Concentration (MFC): 0.03 µg/mL
C krusei 6258
  Minimum Fungicidal Concentration (MFC): 0.016 µg/mL
Mucor (Ceylon)
  Minimum Fungicidal Concentration (MFC): 1 µg/mL
Rhizopus (Ceylon) [5]
  Minimum Fungicidal Concentration (MFC): 0.5 µg/mL
Penicillium 2306
  Minimum Fungicidal Concentration (MFC): 0.06 µg/mL
C parapsilosis 22019
  Minimum Fungicidal Concentration (MFC): 0.016 µg/mL
A niger E5 - 1047
  Minimum Fungicidal Concentration (MFC): 0.06 µg/mL
Fusarium (Ceylon)
  Minimum Fungicidal Concentration (MFC): 32 µg/mL
A flavus E3 - 1044
  Minimum Fungicidal Concentration (MFC): 0.03 µg/mL
Alternaria 1051
  Minimum Fungicidal Concentration (MFC): 0.06 µg/mL
Penicillium I - 1049
  Minimum Fungicidal Concentration (MFC): 1 µg/mL
Rhizopus 1052
  Minimum Fungicidal Concentration (MFC): 0.03 µg/mL
Fusarium 18270
  Minimum Fungicidal Concentration (MFC): >128 µg/mL
Penicillium 2548
  Minimum Fungicidal Concentration (MFC): 0.125 µg/mL
Penicillium 31620
  Minimum Fungicidal Concentration (MFC): 0.125 µg/mL
A flavus P2 - 1045
  Minimum Fungicidal Concentration (MFC): 0.03 µg/mL
Penicillium H - 1048 [6]
  Minimum Fungicidal Concentration (MFC): 4 µg/mL
A flavus P3 - 1041 [7]
  Minimum Fungicidal Concentration (MFC): 0.06 µg/mL
Penicillium 1641 [8]
  Minimum Fungicidal Concentration (MFC): 0.25 µg/mL
C albicans Y01.19
  Minimum Inhibitory Concentration (MIC): 0.03 µg/mL
C albicans A-26
  Minimum Inhibitory Concentration (MIC): 0.016 µg/mL
A fumigatus K - 1033
  Minimum Inhibitory Concentration (MIC): 0.008 µg/mL
A fumigatus PGI - 1023
  Minimum Inhibitory Concentration (MIC): 0.016 µg/mL
A fumigatus L - 1034
  Minimum Inhibitory Concentration (MIC): 0.008 µg/mL
A fumigatus SI-1 - 1019 [9]
  Minimum Inhibitory Concentration (MIC): 0.016 µg/mL
A fumigatus J - 1032
  Minimum Inhibitory Concentration (MIC): 0.008 µg/mL
A fumigatus II - 1012
  Minimum Inhibitory Concentration (MIC): 0.008 µg/mL
A fumigatus I - 1011
  Minimum Inhibitory Concentration (MIC): 0.016 µg/mL
A fumigatus 1008 [10]
  Minimum Inhibitory Concentration (MIC): 0.016 µg/mL
Penicilliuim 2306
  Minimum Inhibitory Concentration (MIC): 0.016 µg/mL
P variotii 22319
  Minimum Inhibitory Concentration (MIC): 0.004 µg/mL
C neoformans I
  Minimum Inhibitory Concentration (MIC): 0.008 µg/mL
C neoformans M-106
  Minimum Inhibitory Concentration (MIC): 0.008 µg/mL
A fumigatus SI-1 - 1019 [11]
  Minimum Fungicidal Concentration (MFC): 0.03 µg/mL
A fumigatus 1008 [12]
  Minimum Fungicidal Concentration (MFC): 0.03 µg/mL
